Numbered stars: 1 amine (or outer) side, 2 acyl side, 3 side chain; on linkers, the order of the positions; unused ones are H or OH. Bridge positions count the residues as written; N and C are the ends. Square brackets hold non-standard residues; d marks the D form. Triazole bridges read from a SMILES are 1,4-linked. Peptide text beside a SMILES is read from it. * marks the point of attachment. ξ: configuration not given here. Biotin = O=C1N[C@H]2[C@H](CS[C@H]2CCCCC(=O)*)N1; Lys(N3) = [N-]=[N+]=NCCCC[C@H](N)C(=O)O; ξLys(N3) = [N-]=[N+]=NCCCCC(N)C(=O)O; Ethylenediamine = C(CN[*:2])N[*:1]; PEG5 = NCCOCCOCCOCCOCCOCCC(=O)O; Pra = C#CC[C@H](N)C(=O)O

The target of experiment [1] is T1, KRAS (Homo sapiens, UniProt P01116).
T1 construct: His6-tagged human KRas Isoform 4B (residues 1-169); His6; made in house; host or cells: E. coli BL21(DE3), PQE80 vector
T1 sequence (P01116 1-169 isoform P01116-2): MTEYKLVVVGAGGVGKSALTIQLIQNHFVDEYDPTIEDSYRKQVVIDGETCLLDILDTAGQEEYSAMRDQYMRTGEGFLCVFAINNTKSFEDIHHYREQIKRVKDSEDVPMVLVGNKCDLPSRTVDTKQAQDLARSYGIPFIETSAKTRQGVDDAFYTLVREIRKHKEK
Put plainly: GTPase Glo assay of intrinsic KRas GTPase activity. It is filed as biochemical. On the procedure:
The intrinsic GTPase activity of WT KRas protein was measured using the GTPase-Glo Assay Kit (#V7681) from Promega Corporation (Madison, Wis.) on opaque white 96-well plates (#6005290) from Perkin Elmer Life Sciences (Waltham, Mass.). Luminescence was recorded on the Flexstation 3 plate reader used for multi-well ELISAs.
KRas inhibition assays were carried out using a GTPase Glo Assay kit from Promega. Each candidate inhibitor PCC was initially tested by combining a concentration series of the ligand with 10 μM KRas protein in an opaque white 96-well plate and incubated with 5 μM 5′-guanosine triphosphate (GTP) for two hours. The remaining GTP was […]. Chemiluminescence was measured using a Flexstation 3 plate reader (All wavelengths mode, 500 ms integration), and plotted using Graphpad Prism 7. […] All measurements were done in triplicate.
The GTPase assays were run in triplicate on a multi-well plate using the GTPase Glo Assay kit from Promega with 10 μM KRas protein and varying concentrations of ligand (1 μM to 100 μM L1a, L8 and 2.5 μM to 250 μM L2). All reagents were warmed to RT before use. A single opaque white 96-well plate was charged with 12.5 μL GTPase/GAP buffer (GTPase buffer w/ 1 mM DTT), 10 μM KRas in GTPase/GAP buffer, or 10 μM KRas protein with either L1a, L2, or L8. Running the survey assays on the same plate allowed for direct comparison of the curves, but it necessitated the use of the first row/column on the multi-well plate which introduced some noise to the low ligand concentration points. A 12.5 μL aliquot of a 2×GTP solution (10 μM rGTP in GTPase Buffer) was then added to each well before allowing the plate to shake at RT for two hours (initial GTPase inhibition assay). The GTPase Glo reagent was reconstituted in the GTPase Glo Buffer (4 μL GTPase Glo (500×) reagent, 1996 μL GTPase Glo Buffer, 1 μL 10 mM ADP) immediately before adding 25 μL to each well. Shaking at RT for thirty minutes preceded the addition of 50 μL of the Detection reagent to each well. The plate was covered and incubated for a total of ten minutes before reading the luminescence with a Flexstation 3 plate reader (All wavelengths mode, 500 ms integration time), graphed using Graphpad Prism 7 (Sigmoidal 4PL mode), and an IC50 value was calculated.
For the full GTPase inhibition curve for L2, the above procedure was followed with the change that the incubation with KRas occurred over or four hours rather than two.
Consequently, the best three ligand fractions L1a, L2, and L8 were probed in a functional, solution phase assay for their ability to disrupt the intrinsic GTPase enzymatic activity of KRas protein. This assay measures the enzymatic conversion of GTP to GDP by KRas—a process that can potentially be inhibited. After incubation, an added GTPase Glo™ reagent converts the remaining GTP to ATP, and the ATP is converted into a chemiluminescent signal. Thus, higher chemiluminescence translates to lower KRas enzymatic activity. For the measurements, a fixed [KRas protein] is incubated with varying ligand concentrations. A concentration of 10 μM KRas protein was selected after generating a standard curve for the intrinsic KRas GTPase activity. KRas is a slow acting enzyme, so a KRas/PCC incubation time of two hours was used for the initial survey scans, while four hour incubation times were used for the higher resolution data. […] Thus, the modulation of KRas activity by L2 was recorded with an expanded concentration range.

The target in experiment [2] is T1, KRAS. Put plainly: B-RAP surface immunofluorescent assay, PCC ligand KRas EC50. It is filed as binding. Particulars: 10 μM KRas well of plate #1, pixel by pixel. On the procedure: The barcode patterned microchip surface was partitioned into 16 individual microwells using a pre-fabricated PDMS slab. Individual biotinylated PCC candidates were complexed to specific SAC-DNA conjugates, combined into a cocktail, and then self-assembled, via DNA hybridization, onto designated barcode stripes (FIGS. 2-4). Incubation with a specific concentration of the target protein preceded incubation with a primary capture antibody and then a fluorophore-conjugated secondary detection antibody. During assay execution, each well represents a different target concentration or assay condition. Once developed, the fluorescence of the barcodes is digitized using a GenePix 4400A array scanner, with an excitation laser power optimized to a power level of 40% (60 W), which maximizes detection sensitivity while also minimizing signal saturation. Data extraction occurs using 10 μm radius circles, taken along the length of a barcode stripe. A fluorescence signal representing the average of all the pixels within a given circle is collected. A total of ten circles (data-blocks) are measured along a 180 μm span of the middle portion for each individual barcode lane in a given well. 10 μM KRas protein gave an average F635 of 47,868.7, with a standard deviation of 4154.53. 1 μM KRas protein gave an average F635 of 11437.6, with a standard deviation of 1602.202. 100 nM KRas protein gave an average F635 of 1780.6, with a standard deviation of 236.38. This illustrates the intensity across a stripe compared to the intensity from the data-block extraction. After extraction the data is background corrected. The background signal arises from (a) non-specific binding of the primary and secondary antibodies (independent of [KRas]), but can vary across different barcode stripes), and (b) non-specific binding of KRas protein ([KRas] dependent). Background (a) was assessed by measuring the average signal in the null protein well for each stripe. Background (b) was assessed by measuring the average fluorescence for the dummy ligand (Biotin* probe) that was in each well. The background subtracted data was then graphed in Graphpad Prism 7 and fitted to a sigmoidal curve (Hill coefficient=1).
Measurement of PCC Ligand KRas EC50 with the Barcode Rapid Assay Platform
Protein Incubation Buffer: Tris-buffered saline (TBS)+0.05% Tween20 (TBST)
A pre-fabricated PDMS template was aligned onto the DNA barcode microchip, and the microchip was taped into a 10 cm petri dish. The wells on the platform were wet with 50 μL PBST before filling with blocking buffer and placing into a 37° C. incubator for 1 hr. Concurrently, 40 μL 1% BSA in PBS solutions containing 750 nM of a SAC-DNA conjugate and 3.75 μM of one biotinylated PCC ligand or biotin-A20-Cy3 blank were prepared for each SAC-DNA conjugate. The biotinylated ligands were allowed to complex with the SAC protein for one hour before pooling the SAC-DNA-ligand solutions (final [SAC-DNA-ligand conjugates]=50 nM). The blocking buffer was aspirated and each well was loaded with the SAC-DNA-ligand conjugates cocktail for hybridization with the DNA barcode at 37° C. for one hour. The wells were washed with PBST (3×) before loading serially diluted solutions of KRas protein in protein buffer (0 to 400 μM). After shaking at RT for one hour, the wells were rinsed with PBST (5×), making sure to pipet up/down with the first addition of PB ST. A (100:1) dilution of CST rabbit anti-Ras Ab (#39655) in 1° ab buffer was added to each well before shaking at RT for one hour. After rinsing the wells with PBST (3×), the wells were loaded with a (200:1) dilution of Abcam goat anti-rabbit-Alexafluor 647 linked ab (ab150079) in 2° ab buffer before shaking at RT for one hour. A final rinse of the wells with PBST (3×) proceeded peeling off the PDMS slab from the barcode microchip and dipping the barcode into the following solutions: PBS, (1:1) PBS: MQ H2O, MQ H2O (2×). […]

The mark [3] stands for this setting: survey assays, 10 μM KRas, two hour incubation.

For `CCC(C)[C@@H]1NC(=O)CNC(=O)[C@H](Cc2cnc[nH]2)NC(=O)[C@@H](N)Cc2cn(nn2)CCCC[C@@H](C(=O)NCCOCCOCCOCCOCCOCCC(=O)NCCNC(=O)CCCC[C@@H]2SC[C@@H]3NC(=O)N[C@@H]32)NC(=O)CNC(=O)[C@H](C(C)C)NC1=O` (single isomer, unassigned) [Ligand L1a, HGIVG], the “effect on the KRas protein's GTPase activity” value (from here on “effect”) at KRAS [1] (setting [3]) is “inhibitory effect”. Moreover, at KRAS [2] (full centroid), the “Avg F635, Full Centroid” value amounted to 20134. In addition, on KRAS [2] (full lane), the “Avg F635, Full Lane” value was 18768. At KRAS [2] (left part of centroid), the “avg F635, Left Part Centroid” value is on record as 17838. In addition, the “avg F635, Middle Part Centroid” value at KRAS [2] (middle part of centroid) is 20725. The “avg F635, Right Part Centroid” value on KRAS [2] (right part of centroid) is given as 21906.
In the case of `CC(C)[C@@H]1NC(=O)[C@@H]2CCCN2C(=O)[C@H](C(C)C)NC(=O)CNC(=O)[C@H](CCC(=O)O)NC(=O)[C@@H](N)Cc2cn(nn2)CCCCC(C(=O)NCCOCCOCCOCCOCCOCCC(=O)NCCNC(=O)CCCC[C@@H]2SC[C@@H]3NC(=O)N[C@@H]32)NC1=O` (stereo partly drawn) [Ligand L2, EGVPV] (H-[Pra]EGVPV[ξLys(N3)][PEG5]-{Ethylenediamine-Biotin}; triazole 1-7), the “concentration above which ligand switches from weakly activating to strongly inhibiting” value at KRAS [1] (expanded concentration range, 10 μM KRas) is “above 20 μM”. The “Hill coefficient of the titration curve” value on KRAS [1] (full inhibition curve, four-hour incubation) was approximately 10. Besides, the rGTP hydrolyzed entry on KRAS [1] (ligand-only (no KRas) wells) is on record as “Less than 5%”. In addition, on KRAS [1] (setting [3]), the “effect” value was “inhibitory effect” and the “relative potency as inhibitor of KRas GTPase activity” value is “most potent”.
On to `C[C@@H](O)[C@@H]1NC(=O)[C@@H](N)Cc2cn(nn2)CCCC[C@@H](C(=O)NCCOCCOCCOCCOCCOCCC(=O)NCCNC(=O)CCCC[C@@H]2SC[C@@H]3NC(=O)N[C@@H]32)NC(=O)[C@H](Cc2ccc(O)cc2)NC(=O)[C@H](Cc2ccccc2)NC(=O)[C@H](CC(N)=O)NC(=O)[C@H](CC(=O)O)NC1=O` [Ligand L8, TDNFY] (H-[Pra]TDNFY[Lys(N3)][PEG5]-{Ethylenediamine-Biotin}; triazole 1-7), for which, at KRAS [1] (setting [3]), the “effect” value was “inhibitory effect”.

For the origin of these results see patent US20180284123A1, “BARCODED RAPID ASSAY PLATFORM USEFUL FOR EFFICIENT ANALYSIS OF CANDIDATE MOLECULES AND METHODS OF MAKING AND USING THE PLATFORM” (California Institute of Technology, priority 2017, published 2018).
